The molecules below were run against T1, recombinant human ALX receptor (Homo sapiens, UniProt P25090) (assay: Intracellular calcium measurements (FLIPR), ALX receptor agonistic activity). Conditions: HEK293-hALXR-Gα16 cells, Fluo-4 calcium signal, normalized to WKYMVm 10 nM.
T1 construct: expressed in transfected cells; host or cells: HEK293 (HEK293-hALXR-Gα16)
T1 sequence (P25090 1-351): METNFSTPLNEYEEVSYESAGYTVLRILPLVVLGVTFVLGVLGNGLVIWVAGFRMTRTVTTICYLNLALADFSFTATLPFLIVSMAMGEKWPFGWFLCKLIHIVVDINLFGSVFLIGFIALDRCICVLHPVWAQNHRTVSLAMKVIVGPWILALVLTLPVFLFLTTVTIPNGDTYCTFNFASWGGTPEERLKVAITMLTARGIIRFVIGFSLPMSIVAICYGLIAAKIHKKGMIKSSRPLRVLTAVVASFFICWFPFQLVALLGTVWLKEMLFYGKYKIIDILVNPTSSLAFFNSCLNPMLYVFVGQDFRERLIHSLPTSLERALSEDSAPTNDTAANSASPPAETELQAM
Type: cell-based
Summary of the method: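 Agonist-induced calcium flux was read by FLIPR (488/540 nm) as baseline-subtracted peak emission, expressed relative to WKYMVm at 10 nM final. Cells used: HEK293-hALXR-Gα16, dye-loaded 60 min at 37° C. with 1 μM Fluo-4 AM before compound dose-response addition.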

First: COc1ccc(C[C@@H](NC(=O)NCc2ccccc2COC(C)C)c2nc3ccccc3[nH]2)cc1 [Example 58, (R)-1-(1-(1H-Benzo[d]imidazol-2-yl)-2-(4-methoxyphenyl)ethyl)-3-(2-(isopropoxymethyl)benzyl)urea]
Second: COc1ccc(CC(NC(=O)NC23CCC(O)(CC2)CC3)c2nc3ccc(F)cc3[nH]2)cc1F (single isomer, unassigned; ent-1) [Example 319, 1-(1-(6-Fluoro-1H-benzo[d]imidazol-2-yl)-2-(3-fluoro-4-methoxyphenyl)ethyl)-3-(4-hydroxybicyclo[2.2.2]octan-1-yl)urea (ent-1)]
The EC50 of the first is 23-fold higher: 23 nM for the first, 1 nM for the second. The second is the more potent here.

First: COc1ccc(C[C@@H](NC(=O)NC2Cc3ccccc3C2)c2nc3ccccc3[nH]2)cc1 [Example 26, (R)-1-(1-(1H-Benzo[d]imidazol-2-yl)-2-(4-methoxyphenyl)ethyl)-3-(2,3-dihydro-1H-inden-2-yl)urea]
Second: COc1ccc(CCNC(=O)NC(Cc2ccc(OC)cc2)c2nc3ccccc3[nH]2)cc1 (stereo not drawn) [Example 53, 1-(1-(1H-Benzo[d]imidazol-2-yl)-2-(4-methoxyphenyl)ethyl)-3-(4-methoxyphenethyl)urea]
The EC50 of the first is 4.9-fold lower: 109 nM for the first, 539 nM for the second.

First: COc1ccc(C[C@@H](NC(=O)N[C@H]2CCCC[C@@H]2CO)c2nc3ccccc3[nH]2)cc1 (relative stereo) [Example 32, 1-((R)-1-(1H-Benzo[d]imidazol-2-yl)-2-(4-methoxyphenyl)ethyl)-3-((1 S*,2S*)-2-(hydroxymethyl)cyclohexyl)urea]
Second: COc1ccc(C[C@@H](NC(=O)N[C@H](C(N)=O)c2ccccc2)c2nc3ccccc3[nH]2)cc1 [Example 339, (S)-2-(3-((R)-1-(1H-Benzo[d]imidazol-2-yl)-2-(4-methoxyphenyl)ethyl)ureido)-2-phenylacetamide]
The EC50 of the first is 3-fold lower: 13 nM for the first, 39 nM for the second.

COc1ccc(C[C@@H](NC(=O)NC2(c3ccc(F)cc3)CC2)c2nc3ccccc3[nH]2)cc1 [Example 341, (R)-1-(1-(1H-Benzo[d]imidazol-2-yl)-2-(4-methoxyphenyl)ethyl)-3-(1-(4-fluorophenyl)cyclopropyl)urea] and COc1ccc(CC(NC(=O)NCc2ccccc2OC)c2nc3ccccc3[nH]2)cc1 (stereo not drawn) [Example 44] are within 1.5-fold of each other in EC50: 397 nM for the first, 466 nM for the second.

Going from COc1ccc(CC(NC(=O)N[C@H]2CC[C@](C)(O)CC2)c2nc3ccccc3[nH]2)c(F)c1 (mixture of isomers) [Example 234, 1-(1-(1H-Benzo[d]imidazol-2-yl)-2-(2-fluoro-4-methoxyphenyl)ethyl)-3-(trans-4-hydroxy-4-methylcyclohexyl)urea] to COc1ccc(CC(NC(=O)NCc2ccon2)c2nc3ccccc3[nH]2)cc1 (stereo not drawn) [Example 384, 1-(1-(1H-Benzo[d]imidazol-2-yl)-2-(4-methoxyphenyl)ethyl)-3-(isoxazol-3-ylmethyl)urea], the EC50 rises from 5.1 nM to 1220 nM (240-fold). The first is the more potent here.

Going from COc1ccc(CC(NC(=O)N[C@H]2CC[C@H](OC)CC2)c2nc3ccccc3[nH]2)cc1 (relative stereo) [Example 80, 1-(1-(1H-Benzo[d]imidazol-2-yl)-2-(4-methoxyphenyl)ethyl)-3-(trans-4-methoxycyclohexyl)urea] to COc1ccc(C[C@@H](NC(=O)NC23CCC(O)(CC2)CC3)c2nc3ccccc3[nH]2)cc1 [Example 166, (R)-1-(1-(1H-Benzo[d]imidazol-2-yl)-2-(4-methoxyphenyl)ethyl)-3-(4-hydroxybicyclo[2.2.2]octan-1-yl)urea], the EC50 falls from 172 nM to 2.1 nM (82-fold).

COc1ccc(C[C@@H](NC(=O)NCCc2cc(C)ccc2C)c2nc3ccccc3[nH]2)cc1 [Example 306, (R)-1-(1-(1H-Benzo[d]imidazol-2-yl)-2-(4-methoxyphenyl)ethyl)-3-(2,5-dimethylphenethyl)urea] and “1-(1-(1H-Benzo[d]imidazol-2-yl)-2-(3,5-difluoro-4-methoxyphenyl)ethyl)-3-(4-hydroxybicyclo[2.2.2]octan-1-yl)urea [Example 242]” are within 1.5-fold of each other in EC50: 60 nM for the first, 70 nM for the second.

COc1ccc(CC(NC(=O)N(C)[C@H]2CC[C@H](O)CC2)c2nc3ccccc3[nH]2)cc1 (relative stereo) [Example 76, 3-(1-(1H-Benzo[d]imidazol-2-yl)-2-(4-methoxyphenyl)ethyl)-1-(trans-4-hydroxycyclohexyl)-1-methylurea] and COc1ccc(C[C@@H](NC(=O)NCc2ccccc2OC)c2nc3ccccc3[nH]2)cc1 [Example 137] are within 1.5-fold of each other in EC50: 540 nM for the first, 726 nM for the second.

Compared with Cc1ccc2nc([C@@H](Cc3ccc(Br)cc3)NC(=O)N[C@H]3CC[C@H](O)CC3)[nH]c2c1 [Example 221, 1-((R)-2-(4-Bromophenyl)-1-(6-methyl-1H-benzo[d]imidazol-2-yl)ethyl)-3-(trans-4-hydroxycyclohexyl)urea], COc1ccc(C[C@@H](NC(=O)NC23CCN(CC2)CC3)c2nc3ccccc3[nH]2)cc1 [Example 170, (R)-1-(1-(1H-Benzo[d]imidazol-2-yl)-2-(4-methoxyphenyl)ethyl)-3-(quinuclidin-4-yl)urea] is 19-fold higher in EC50: 4 nM for the first, 76 nM for the second.

Compared with COc1ccc(C[C@@H](NC(=O)N[C@H]2CCC[C@@H]2O)c2nc3ccccc3[nH]2)cc1 [Example 115, 1-((R)-1-(1H-Benzo[d]imidazol-2-yl)-2-(4-methoxyphenyl)ethyl)-3-((1S,2S)-2-hydroxycyclopentyl)urea], “(R)-tert-Butyl 4-((3-(1-(1H-benzo[d]imidazol-2-yl)-2-(4-methoxyphenyl)ethyl)ureido)methyl)piperidine-1-carboxylate [Example 106]” is 3.8-fold higher in EC50: 143 nM for the first, 538 nM for the second.

COc1ccc(C[C@@H](NC(=O)NCc2nn(C)c3ccccc23)c2nc3ccccc3[nH]2)cc1 [Example 298, (R)-1-(1-(1H-Benzo[d]imidazol-2-yl)-2-(4-methoxyphenyl)ethyl)-3-((1-methyl-1H-indazol-3-yl)methyl)urea] and COc1ccc(CC(NC(=O)Nc2ccnn2-c2ccccc2)c2nc3ccccc3[nH]2)cc1 (stereo not drawn) [Example 412, 1-(1-(1H-benzo[d]imidazol-2-yl)-2-(4-methoxyphenyl)ethyl)-3-(1-phenyl-1H-pyrazol-5-yl)urea] are within 1.5-fold of each other in EC50: 203 nM for the first, 157 nM for the second.

Compared with COc1ccc(CC(NC(=O)Nc2cc(C)nn2-c2ccccc2)c2nc3ccccc3[nH]2)cc1 (stereo not drawn) [Example 408, 1-(1-(1H-benzo[d]imidazol-2-yl)-2-(4-methoxyphenyl)ethyl)-3-(3-methyl-1-phenyl-1H-pyrazol-5-yl)urea], COc1ccc(C[C@@H](NC(=O)N[C@H]2CC[C@H](C(=O)OC)CC2)c2nc3ccccc3[nH]2)cc1 [Example 224, trans-Methyl 4-(3-((R)-1-(1H-benzo[d]imidazol-2-yl)-2-(4-methoxyphenyl)ethyl)ureido)cyclohexanecarboxylate] is 2.4-fold lower in EC50: 20 nM for the first, 8.2 nM for the second.

First: COc1ccc(CC(NC(=O)NC23CCC(O)(CC2)CC3)c2nc3ccc(F)cc3[nH]2)cc1F (single isomer, unassigned; ent-2) [Example 372, 1-(1-(6-Fluoro-1H-benzo[d]imidazol-2-yl)-2-(3-fluoro-4-methoxyphenyl)ethyl)-3-(4-hydroxybicyclo[2.2.2]octan-1-yl)urea (ent-2)]
Second: COc1ccc(C[C@@H](NC(=O)N2CC3CCC2CN3C)c2nc3ccccc3[nH]2)cc1 (stereo partly drawn) [Example 168, N—((R)-1-(1H-Benzo[d]imidazol-2-yl)-2-(4-methoxyphenyl)ethyl)-5-methyl-2,5-diazabicyclo[2.2.2]octane-2-carboxamide]
The EC50 of the first is 8.8-fold higher: 769 nM for the first, 87 nM for the second.

Compared with COc1ccc(C[C@@H](NC(=O)N[C@H](C)c2ccc(Cl)cc2)c2nc3ccccc3[nH]2)cc1 [Example 329, 1-((R)-1-(1H-Benzo[d]imidazol-2-yl)-2-(4-methoxyphenyl)ethyl)-3-((R)-1-(4-chlorophenyl)ethyl)urea], CC[C@H](NC(=O)N[C@H](Cc1ccc(OC)cc1)c1nc2ccccc2[nH]1)c1ccccc1 [Example 345, 1-((R)-1-(1H-Benzo[d]imidazol-2-yl)-2-(4-methoxyphenyl)ethyl)-3-((S)-1-phenylpropyl)urea] is 2.2-fold lower in EC50: 285 nM for the first, 127 nM for the second.

First: COc1ccc(C[C@@H](NC(=O)NC2CC(C)(C)N(C)C(C)(C)C2)c2nc3ccccc3[nH]2)cc1 [Example 116, (R)-1-(1-(1H-Benzo[d]imidazol-2-yl)-2-(4-methoxyphenyl)ethyl)-3-(1,2,2,6,6-pentamethylpiperidin-4-yl)urea]
Second: O=C(NC(Cc1ccc(Br)cc1F)c1nc2ccccc2[nH]1)N[C@H]1CC[C@H](O)CC1 (single isomer, unassigned; ent-1) [Example 313, 1-(1-(1H-Benzo[d]imidazol-2-yl)-2-(4-bromo-2-fluorophenyl)ethyl)-3-(trans-4-hydroxycyclohexyl)urea (ent-1)]
The EC50 of the first is 26-fold higher: 63 nM for the first, 2.4 nM for the second.

COc1ccc(C[C@@H](NC(=O)NC2CCCC(C)C2)c2nc3ccccc3[nH]2)cc1 (stereo partly drawn) [Example 33, 1-((R)-1-(1H-Benzo[d]imidazol-2-yl)-2-(4-methoxyphenyl)ethyl)-3-(3-methylcyclohexyl)urea] and COc1ccc(C[C@@H](NC(=O)NCCCCO)c2nc3ccccc3[nH]2)cc1 [Example 96, (R)-1-(1-(1H-Benzo[d]imidazol-2-yl)-2-(4-methoxyphenyl)ethyl)-3-(4-hydroxybutyl)urea] are within 1.5-fold of each other in EC50: 130 nM for the first, 152 nM for the second.

With COc1ccc(C[C@@H](NC(=O)NCc2ccccc2Cn2cncn2)c2nc3ccccc3[nH]2)cc1 [Example 31, (R)-1-(2-((1H-1,2,4-Triazol-1-yl)methyl)benzyl)-3-(1-(1H-benzo[d]imidazol-2-yl)-2-(4-methoxyphenyl)ethyl)urea] the EC50 was 26 nM.

From patent US9663473B2 (Actelion Pharmaceuticals Ltd, priority 2013, dated 2017)
